Source: the NIST ThermoML archive (doi:10.1016/j.fluid.2010.02.043)
Numbers after ± are expanded uncertainties.

Settings: Liquid, Ebulliometric method (Recirculating still)

vapor or sublimation pressure (366.97 K)	vapor or sublimation pressure (378.82 K)	vapor or sublimation pressure (387.59 K)	vapor or sublimation pressure (397.84 K)	vapor or sublimation pressure (403.31 K)	vapor or sublimation pressure (408.91 K)	vapor or sublimation pressure (413.59 K)	vapor or sublimation pressure (418.73 K)	vapor or sublimation pressure (422.25 K)	vapor or sublimation pressure (426.39 K)	SMILES	vapor or sublimation pressure (332.19 K)	vapor or sublimation pressure (346.26 K)	vapor or sublimation pressure (354.42 K)	vapor or sublimation pressure (362.18 K)	vapor or sublimation pressure (366.46 K)	vapor or sublimation pressure (371.63 K)	vapor or sublimation pressure (375.04 K)	vapor or sublimation pressure (378.75 K)	vapor or sublimation pressure (382.02 K)
15.8 ± 0.4 kPa	24.1 ± 0.4 kPa	32.3 ± 0.4 kPa	44.4 ± 0.4 kPa	52.8 ± 0.4 kPa	62.2 ± 0.4 kPa	71.1 ± 0.4 kPa	82.1 ± 0.4 kPa	90.5 ± 0.4 kPa	100.7 ± 0.4 kPa	CCSSCC [3,4-dithiahexane]									
										CSSC [2,3-dithiabutane]	18.2 ± 0.4 kPa	31.1 ± 0.4 kPa	41.7 ± 0.4 kPa	53.9 ± 0.4 kPa	61.9 ± 0.4 kPa	72.9 ± 0.4 kPa	81.1 ± 0.4 kPa	90.9 ± 0.4 kPa	100.6 ± 0.5 kPa
